Laboratory results reported in patent publication US8822645B2, “Prostaglandin E2 dual variable domain immunoglobulins and uses thereof” (AbbVie Inc., priority 2008, dated 2014).

How the values were obtained:
[1] = test system: C57.BL/6 mice, carrageenan-induced footpad edema; experiment: Carrageenan-induced footpad edema model; type: in vivo, mouse; settings: 3 mg/kg, p.o.
Method: Carrageenan-Induced Footpad Edema is an acute rodent model of innate immune function. Intradermal (ID) injection of an inflammatory agent causes a rapid influx of neutrophils and fluid edema, which peaks at approximately 4 hours, followed by an influx of macrophages and monocytes, which peaks at approximately 48 hours. C57.BL/6 mice (8-10-week-old, Jackson Laboratories, Bar Harbor, Me.) were injected ID in the rear footpad with 30 μL of either PBS (left) or λ-carrageenen (Sigma Aldrich, St. Louis, Mo.) in PBS (right) at a concentration of 5.0 mg/mL (150 μg/mouse). […] Significant difference for paw thickness was determined by comparing mean paw swelling for each treatment group to vehicle in a Student's two-tailed t-test.
The endpoint measured was the difference in paw swelling (edema) between right and left paws 4 hours after treatment.

human TNFα [2] = molecular target: T1, human TNFα (Homo sapiens, UniProt P01375); experiment: L929 assay (TNFα induced death of L929 cells); type: cell-based, mouse; settings: read-out: TNFα Cellular Potency IC50
T1 sequence (P01375 77-233 limits assumed): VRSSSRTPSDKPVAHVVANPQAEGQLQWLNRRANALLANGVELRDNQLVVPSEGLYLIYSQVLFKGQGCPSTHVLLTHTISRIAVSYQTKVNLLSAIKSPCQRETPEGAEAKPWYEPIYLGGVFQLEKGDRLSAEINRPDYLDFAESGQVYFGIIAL

human TNFα [3] = molecular target: T1, human TNFα; experiment: BIAcore assay, TNFα binding kinetics and affinity
Method: The BIACORE assay (BIAcore, Inc, Piscataway, N.J.) determines the affinity of antibodies or DVD-Ig with kinetic measurements of on-rate and off-rate constants. Binding of antibodies or DVD-Ig to a target antigen (for example, a purified recombinant target antigen) is determined by surface plasmon resonance-based measurements with a BIAcore® 3000 instrument (BIAcore® AB, Uppsala, Sweden) using running HBS-EP (10 mM HEPES [pH 7.4], 150 mM NaCl, 3 mM EDTA, and 0.005% surfactant P20) at 25° C. All chemicals are obtained from BIAcore® AB (Uppsala, Sweden) or otherwise from a different source as described in the text. […] The association and dissociation rate constants, kon (M^−1 s^−1) and koff (s^−1) are determined under a continuous flow rate of 25 μl/min. […] The equilibrium dissociation constant (M) of the reaction between antibodies or DVD-Igs and the target antigen is then calculated from the kinetic rate constants by the following formula: KD=koff/kon. Binding is recorded as a function of time and kinetic rate constants are calculated. In this assay, on-rates as fast as 10^6M^−1 s^−1 and off-rates as slow as 10^−6 s^−1 can be measured. […]

Dynamic light scattering = type: physicochemical; settings: 2 mg/mL in PBS
Method: Samples were centrifuged at 10,000 RPM for 10 minutes before measured on DynaPro-801 Dynamic light scattering system.

[4] = test system: human TNFα transgenic B6.Cg(SJL)-Tg(TNF) N21+ mice; experiment: Human TNFα transgenic induced arthritis model; type: in vivo, mouse; settings: 30 mg/kg
Method: Human TNFα transgenic B6.Cg(SJL)-Tg(TNF) N21+ mice (40 male and 40 females) (Taconic, Hudson, N.Y.) at 4 weeks age were divided into 10 groups of 8 mice (4 male and 4 females/group). Each week, starting from week 5 until week 12 of age the morphology of the rear ankle joints of the mice were evaluated and scored for signs and symptoms of arthritis. Arthritic scores were assigned as follows. • 0=no arthritis (normal appearance and flexion) • 1=mild arthritis (joint distortion) • 2=moderate arthritis (swelling, joint deformation); and • 3=severe arthritis (ankylosis detected on flexion and severely impaired movement)
Animals were randomized to achieve approximately similar mean arthritic score (MAS) for all groups at week 9 at first signs of symptoms. Animals were then treated i.p. twice a week starting from week 10 of age until week 12 of age. Mice in group 1 served as untreated control were administered PBS.

For `COc1ccc2c(c1)c(CC(=O)O)c(C)n2C(=O)c1ccc(Cl)cc1` [Indomethacin, reference compound], the “% Inhibition” value [1] was 57 ± 3.5% and the “Δ Paw Swelling” value ([1]; 4 hours post carrageenan) was 0.486 ± 0.03 mm.

For “D2E7: human anti-TNFα monoclonal antibody, parent of the DVD-Igs [reference compound]”, the IC50 (human TNFα [2]) was 0.041 nM, the Kd (human TNFα [3]) was 0.027 nM and the hydrodynamic radius (Dynamic light scattering) was 5.46 nm. The “maximal efficacy (inhibition of AUC of the mean arthritis score)” value [4] was 59%.
